Target: T1, EGFR TMLRCS (Homo sapiens, UniProt P00533, C797S/L858R/T790M)
T1 construct: host or cells: BaF3-TMLRCS (Ba/F3 cells, kept under puromycin selection)
Test: HTRF Phospho EGFR TMLRCS Assay (Cellular)
Assay type: cell-based
Details: BaF3-TMLRCS cell line, 4 hours incubation, Phospho-EGFR HTRF readout
In short: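 BaF3 cells expressing EGFR L858R/T790M/C797S, 20000/well, treated with compound in dose response for 4 h at 37 °C, 5% CO2. After lysis, phospho-EGFR detected by HTRF with cryptate and d2 antibodies over 4 h at room temperature. Signal taken as 665/616 nm ratio ×10000, normalized.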

T1 sequence (P00533 25-1210 T790M/C797S/L858R): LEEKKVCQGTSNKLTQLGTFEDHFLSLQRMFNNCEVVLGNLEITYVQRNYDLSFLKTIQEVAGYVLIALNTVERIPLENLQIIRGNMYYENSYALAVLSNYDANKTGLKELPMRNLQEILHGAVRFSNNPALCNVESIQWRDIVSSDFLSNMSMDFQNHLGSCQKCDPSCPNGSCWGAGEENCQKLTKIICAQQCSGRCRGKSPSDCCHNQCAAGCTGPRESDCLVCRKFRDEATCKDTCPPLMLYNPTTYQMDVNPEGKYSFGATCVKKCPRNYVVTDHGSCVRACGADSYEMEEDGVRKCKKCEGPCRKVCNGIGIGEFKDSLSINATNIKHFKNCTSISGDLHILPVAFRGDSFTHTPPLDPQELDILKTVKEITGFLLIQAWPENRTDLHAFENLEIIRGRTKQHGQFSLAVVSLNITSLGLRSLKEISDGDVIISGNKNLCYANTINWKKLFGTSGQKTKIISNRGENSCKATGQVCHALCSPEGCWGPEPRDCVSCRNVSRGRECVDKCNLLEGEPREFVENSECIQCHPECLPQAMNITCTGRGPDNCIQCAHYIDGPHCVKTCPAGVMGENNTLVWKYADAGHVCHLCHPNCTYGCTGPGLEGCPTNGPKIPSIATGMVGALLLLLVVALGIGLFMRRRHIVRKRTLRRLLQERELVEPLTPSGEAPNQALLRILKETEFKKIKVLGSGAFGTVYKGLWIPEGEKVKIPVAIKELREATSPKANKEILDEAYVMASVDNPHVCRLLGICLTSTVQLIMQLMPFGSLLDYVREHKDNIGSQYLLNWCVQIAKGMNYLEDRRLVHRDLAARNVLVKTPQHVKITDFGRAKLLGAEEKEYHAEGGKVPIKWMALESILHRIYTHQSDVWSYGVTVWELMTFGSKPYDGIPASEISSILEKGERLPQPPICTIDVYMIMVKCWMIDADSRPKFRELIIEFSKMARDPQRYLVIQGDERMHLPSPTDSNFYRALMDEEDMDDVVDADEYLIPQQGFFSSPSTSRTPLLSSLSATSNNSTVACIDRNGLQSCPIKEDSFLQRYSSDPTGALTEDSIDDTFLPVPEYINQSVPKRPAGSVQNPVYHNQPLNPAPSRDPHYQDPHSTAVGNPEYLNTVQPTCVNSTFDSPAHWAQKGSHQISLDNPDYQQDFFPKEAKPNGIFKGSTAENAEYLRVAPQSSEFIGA

Structure (SMILES)	IC50 [nM]
CCN1CCC(c2ccc(-c3cc(Cl)c4cn(C(C(=O)Nc5nccs5)c5ncn6c5CCC6)nc4c3Cl)cc2)CC1 (centres unmarked) [Example 104, 2-(4,7-Dichloro-6-(4-(1-ethylpiperidin-4-yl)phenyl)-2H-indazol-2-yl)-2-(6,7-dihydro-5H-pyrrolo[1,2-c]imidazol-1-yl)-N-(thiazol-2-yl)acetamide]	12
CCc1cc(-c2cc(Cl)c3cn(C(C(=O)Nc4nccs4)c4ncn5c4C[C@@H](F)C5)nc3c2Cl)ccc1OCCN(C)C (stereo partly drawn) [Example 40, 2-(4,7-Dichloro-6-(4-(2-(dimethylamino)ethoxy)-3-ethylphenyl)-2H-indazol-2-yl)-2-((R)-6-fluoro-6,7-dihydro-5H-pyrrolo[1,2-c]imidazol-1-yl)-N-(thiazol-2-yl)acetamide]	8
CCN1C[C@H]2CC(c3ccc(-c4cc(Cl)c5cn(C(C(=O)Nc6nccs6)c6ncn7c6C[C@@H](F)C7)nc5c4Cl)cc3)C[C@H]2C1 (stereo partly drawn) [Example 43, 2-(4,7-Dichloro-6-(4-((3aR,6aS)-2-ethyloctahydrocyclopenta[c]pyrrol-5-yl)phenyl)-2H-indazol-2-yl)-2-((R)-6-fluoro-6,7-dihydro-5H-pyrrolo[1,2-c]imidazol-1-yl)-N-(thiazolyl)acetamide]	11
O=C(Nc1nccs1)C(c1ncn2c1C[C@@H](F)C2)n1cc2c(Cl)cc(-c3ccc(C4CC(CN5CCC(CO)CC5)C4)cc3)c(Cl)c2n1 (mixture of isomers) [Example 75, rac-2-(4,7-Dichloro-6-(4-(34(4-(hydroxymethyl)piperidin-1-yl)methyl)cyclobutyl)phenyl)-2H-indazol-2-yl)-2-((R)-6-fluoro-6,7-dihydro-5H-pyrrolo[1,2-c]imidazol-1-yl)-N-(thiazol-2-yl)acetamide]	8
CN(CCN1CCC(CO)CC1)c1ccc(-c2cc(Cl)c3cn(C(C(=O)Nc4nccs4)c4ncn5c4C[C@@H](F)C5)nc3c2Cl)cc1 (some centres unmarked) [Example 79]	7
CCN1CCC(c2ccc(-c3cc(C)c4cn(C(C(=O)Nc5nccs5)c5ncn6c5C[C@@H](F)C6)nc4c3C)cc2)CC1 (stereo partly drawn) [Example 120, 2-(6-(4-(1-Ethylpiperidin-4-yl)phenyl)-4,7-dimethyl-2H-indazol-2-yl)-2-((R)-6-fluoro-6,7-dihydro-5H-pyrrolo[1,2-c]imidazol-1-yl)-N-(thiazol-2-yl)acetamide]	15
O=C(Nc1nccs1)C(c1ncn2c1C[C@@H](F)C2)n1cc2c(Cl)cc(-c3ccc(C4CCN(C5CC(O)C5)CC4)cc3)c(Cl)c2n1 (mixture of isomers) [Example 87, rac-2-(4,7-Dichloro-6-(4-(1-(3-hydroxycyclobutyl)piperidin-4-yl)phenyl)-2H-indazol-2-yl)-2-((R)-6-fluoro-6,7-dihydro-5H-pyrrolo[1,2-c]imidazol-1-yl)-N-(thiazol-2-yl)acetamide]	9
CN(C)CCN(C)c1ccc(-c2cc(Cl)c3cn(C(C(=O)Nc4nccs4)c4ncn5c4C[C@@H](F)C5)nc3c2Cl)cc1 (mixture of isomers) [Example 41, rac-2-(4,7-Dichloro-6-(4-((2-(dimethylamino)ethyl)(methyl)amino)phenyl)-2H-indazol-2-yl)-2-((R)-6-fluoro-6,7-dihydro-5H-pyrrolo[1,2-c]imidazol-1-yl)-N-(thiazol-2-yl)acetamide]	10
O=C(Nc1nccs1)C(c1ncn2c1C[C@@H](F)C2)n1cc2c(Cl)cc(-c3ccc(C4CC(CN5CCC(O)CC5)C4)cc3)c(Cl)c2n1 (mixture of isomers) [Example 76, rac-2-(4,7-Dichloro-6-(4-(34(4-hydroxypiperidin-1-yl)methyl)cyclobutyl)phenyl)-2H-indazol-2-yl)-2-((R)-6-fluoro-6,7-dihydro-5H-pyrrolo[1,2-c]imidazol-1-yl)-N-(thiazol-2-yl)acetamide]	11
O=C(Nc1nccs1)C(c1ncn2c1C[C@@H](F)C2)n1cc2c(Cl)cc(-c3ccc(CN4CC5(CC(O)C5)C4)cc3)c(Cl)c2n1 (mixture of isomers) [Example 62, rac-2-(4,7-Dichloro-6-(4-((6-hydroxy-2-azaspiro[3.3]heptan-2-yl)methyl)phenyl)-2H-indazol-2-yl)-2-((R)-6-fluoro-6,7-dihydro-5H-pyrrolo[1,2-c]imidazol-1-yl)-N-(thiazol-2-yl)acetamide]	8
Cc1cc(-c2ccc(N3CCOCC3)cc2)c(Cl)c2nn(C(C(=O)Nc3nccs3)c3ncn4c3CCC4)cc12 (centres unmarked) [Example 126, 2-(7-Chloro-4-methyl-6-(4-morpholinophenyl)-2H-indazol-2-yl)-2-(6,7-dihydro-5H-pyrrolo[1,2-c]imidazol-1-yl)-N-(thiazol-2-yl)acetamide]	9
O=C(Nc1nccs1)C(c1ncn2c1C[C@@H](F)C2)n1cc2c(Cl)cc(-c3ccc(C4CCN(CCF)CC4)cc3)c(Cl)c2n1 (stereo partly drawn) [Example 33, 2-(4,7-Dichloro-6-(4-(1-(2-fluoroethyl)piperidin-4-yl)phenyl)-2H-indazol-2-yl)-2-((R)-6-fluoro-6,7-dihydro-5H-pyrrolo[1,2-c]imidazol-1-yl)-N-(thiazol-2-yl)acetamide]	7
Cc1cc(-c2ccc(OCCN3CCC(CO)CC3)cc2)c(Cl)c2nn(C(C(=O)Nc3nccs3)c3ncn4c3C[C@@H](F)C4)cc12 (mixture of isomers) [Example 132, rac-2-(7-Chloro-6-(4-(2-(4-(hydroxymethyl)piperidin-1-yl)ethoxy)phenyl)-4-methyl-2H-indazol-2-yl)-2-((R)-6-fluoro-6,7-dihydro-5H-pyrrolo[1,2-c]imidazol-1-yl)-N-(thiazol-2-yl)acetamide]	7

Further lines, results first:

IC50 [nM]	Structure (SMILES)
6	CN(Cc1ccc(-c2cc(Cl)c3cn(C(C(=O)Nc4nccs4)c4ncn5c4C[C@@H](F)C5)nc3c2Cl)cc1)C1CCCC(O)C1 (mixture of isomers) [Example 95, rac-2-(4,7-Dichloro-6-(4-(((3-hydroxycyclohexyl)(methyl)amino)methyl)phenyl)-2H-indazol-2-yl)-2-((R)-6-fluoro-6,7-dihydro-5H-pyrrolo[1,2-c]imidazol-1-yl)-N-(thiazolyl)acetamide]
6	CN(C)CCOc1ccc(-c2cc(Cl)c3cn(C(C(=O)Nc4nccs4)c4ncn5c4C[C@@H](F)C5)nc3c2Cl)cc1 (mixture of isomers) [Example 34, 2-[4,7-Dichloro-6-[4-[2-(dimethylamino)ethoxy]phenyl]indazol-2-yl]-2-[rac-(6R)-6-fluoro-6,7-dihydro-5H-pyrrolo[1,2-c]imidazol-1-yl]-N-(1,3-thiazol-2-yl)acetamide]
7	Cc1cc(-c2ccc(N3CCOCC3)cc2)c(C)c2nn(C(C(=O)Nc3nccs3)c3ncn4c3C[C@@H](F)C4)cc12 (stereo partly drawn) [Example 118, 2-(4,7-Dimethyl-6-(4-morpholinophenyl)-2H-indazol-2-yl)-2-((R)-6-fluoro-6,7-dihydro-5H-pyrrolo[1,2-c]imidazol-1-yl)-N-(thiazol-2-yl)acetamide]
4	O=C(Nc1nccs1)C(c1ncn2c1C[C@@H](F)C2)n1cc2c(Cl)cc(-c3ccc(N4CC5(CCNCC5)C4)cc3)c(Cl)c2n1 (stereo partly drawn) [Example 69, 2-(6-(4-(2,7-Diazaspiro[3.5]nonan-2-yl)phenyl)-4,7-dichloro-2H-indazol-2-yl)-2-((R)-6-fluoro-6,7-dihydro-5H-pyrrolo[1,2-c]imidazol-1-yl)-N-(thiazol-2-yl)acetamide]
6	CN1CCN(Cc2ccc(-c3cc(Cl)c4cn(C(C(=O)Nc5nccs5)c5ncn6c5C[C@@H](F)C6)nc4c3Cl)cc2)CC1 (mixture of isomers) [Example 96, rac-2-(4,7-Dichloro-6-(4-((4-methylpiperazin-1-yl)methyl)phenyl)-2H-indazol-2-yl)-2-((R)-6-fluoro-6,7-dihydro-5H-pyrrolo[1,2-c]imidazol-1-yl)-N-(thiazol-2-yl)acetamide]
5	O=C(Nc1nccs1)C(c1ncn2c1C[C@@H](F)C2)n1cc2c(Cl)cc(-c3ccc(CN4CCC(O)CC4)cc3)c(Cl)c2n1 (mixture of isomers) [Example 58, rac-2-(4,7-Dichloro-6-(4-((4-hydroxypiperidin-1-yl)methyl)phenyl)-2H-indazol-2-yl)-2-((R)-6-fluoro-6,7-dihydro-5H-pyrrolo[1,2-c]imidazol-1-yl)-N-(thiazol-2-yl)acetamide]
1	O=C(Nc1nccs1)C(c1ncn2c1C[C@@H](F)C2)n1cc2c(Cl)cc(-c3ccc(OCCN4CCC(O)CC4)cc3)c(Cl)c2n1 (mixture of isomers) [Example 77, rac-2-(4,7-Dichloro-6-(4-(2-(4-hydroxypiperidin-1-yl)ethoxy)phenyl)-2H-indazol-2-yl)-2-((R)-6-fluoro-6,7-dihydro-5H-pyrrolo[1,2-c]imidazol-1-yl)-N-(thiazol-2-yl)acetamide]
5	O=C(Nc1nccs1)C(c1ncn2c1C[C@@H](F)C2)n1cc2c(Cl)cc(-c3cnc(N4CCOCC4)nc3)c(Cl)c2n1 (stereo partly drawn) [Example 27, 2-(4,7-Dichloro-6-(2-morpholinopyrimidin-5-yl)-2H-indazol-2-yl)-2-((R)-6-fluoro-6,7-dihydro-5H-pyrrolo[1,2-c]imidazol-1-yl)-N-(thiazol-2-yl)acetamide]
4	O=C(Nc1nccs1)C(c1ncn2c1C[C@@H](F)C2)n1cc2c(Cl)cc(-c3ccc(N4CCC(O)CC4)cc3)c(Cl)c2n1 (mixture of isomers) [Example 39, rac-2-(4,7-Dichloro-6-(4-(4-hydroxypiperidin-1-yl)phenyl)-2H-indazol-2-yl)-2-((R)-6-fluoro-6,7-dihydro-5H-pyrrolo[1,2-c]imidazol-1-yl)-N-(thiazol-2-yl)acetamide]
6	CN(C)CCc1ccc(-c2cc(Cl)c3cn(C(C(=O)Nc4nccs4)c4ncn5c4C[C@@H](F)C5)nc3c2Cl)cc1 (stereo partly drawn) [Example 35, 2-(4,7-Dichloro-6-(4-(2-(dimethylamino)ethyl)phenyl)-2H-indazol-2-yl)-2-((R)-6-fluoro-6,7-dihydro-5H-pyrrolo[1,2-c]imidazol-1-yl)-N-(thiazol-2-yl)acetamide]

Reference: patent publication US12479849B2, “EGFR inhibitors for the treatment of cancer” (Hoffmann-La Roche Inc., priority 2019, dated 2025)
